Patent publication US5936065A, “CS-1 peptidomimetics, compositions and methods of using the same” (Cytel Corporation, priority 1995, dated 1999)
Square brackets hold non-standard residues; d marks the D form. Peptide text beside a SMILES is read from it. * marks the point of attachment. NMeF = CN[C@@H](Cc1ccccc1)C(=O)O; NMeD = CN[C@@H](CC(=O)O)C(=O)O; Morpholide = C1CN(*)CCO1; Nle = CCCC[C@H](N)C(=O)O; PhAc = O=C(Cc1ccccc1)*

What was measured:
[1] = test system: New Zealand white rabbits; assay: Treatment of asthmatic rabbits (house dust mite antigen challenge, crossover study); type: in vivo, rabbit; conditions: 100 mg/kg nebulizer
Protocol: Six New Zealand white rabbits were immunized with house dust mite antigen from birth through four months of age. Upon immunization, three rabbits received a single nebulizer administration of the inhibitor compound, Compound ID No. 1051.01, N-phenylacetyl-Leu-Asp-Phe-morpholinamide in aqueous 50 percent ethanol as diluent in an amount of 100 mg/kg, and the other three received diluent alone. All of the rabbits were challenged with house dust mite antigen about 15-30 minutes after administration of the compound, with those animals not receiving compound serving as controls.
Once immunized and challenged, the inflammatory state subsides to a basal level within about three weeks. The three animals used as controls were thereafter used as subjects for receipt of an inhibitor compound, and the three rabbits that initially received the compound can serve as controls.
Such a crossover study was done here. […]
Initial pulmonary function, measured by dynamic compliance (Cdyn) and lung resistance (RL) , and bronchoalveolar lavage (BAL) to obtain an effector cell count, here eosinophils, were conducted prior to administration of the compound or diluent for both portions of this crossover study. […]

[2] = biological target: T1, VLA-4 receptor (Homo sapiens, UniProt P05556+P13612); assay: In vitro binding assay: inhibition of binding of 51Cr-labeled Jurkat cells to solid phase-bound CS-1 compound (SEQ ID NO:1); type: cell-based
T1 construct: inflammatory cells that contain the VLA-4 receptor [Jurkat cells; host or cells: Jurkat cells (human T lymphoblastic line)
Protocol: Binding inhibition is measured here as a concentration of compound that inhibits one-half the binding between a standard number of Jurkat cells and a standard amount of CS-1 compound bound to the surface of a microtiter plate well. Those concentrations are conveniently expressed as IC50 values, smaller numbers indicating a lower concentration required to inhibit 50 percent binding and therefore greater potency. Further specifics of this assay are provided hereinafter.
Jurkat cells (ATCC TIB 152), a human T lymphoblastic line, labeled with ^51 chromium were used to assay in vitro binding inhibition provided by various compounds discussed herein.
The plates were prepared as follows: The 25-mer CS-1 compound (SEQ ID NO:1) dissolved at 0.5-1 μg/ml in a buffer of 0.1M NaHCO3 at pH 9.5 that also contained 10 μg/ml of bovine serum albumin (BSA) or a conjugate of the CS-1 compound linked to ovalbumin (CS-1-OVA) dissolved at 1-2.5 μg/ml in the same buffer was used as the substrate. Each well of the microtiter plates was coated with 50 μl of substrate or buffer alone for controls. The wells were permitted to dry out completely and were then rinsed twice with PBS at pH 7.4. Non-specific binding sites of each well were then blocked using 200 μl per well of RPMI/1 percent BSA for two hours at room temperature.
Jurkat cells (3-5×10^6 cells) were placed into a 15 ml Falcon™ round-bottom tube with a cap. The tube was centrifuged, and the extra medium was then removed.
Two hundred microliters of a ^51 Cr labeling solution were added to the centrifuged cells and maintained in contact with the cells for 90-120 minutes in a warm room. […] Longer contact times provide a greater amount of labeling but lower cell viability.
The labeled cells are washed with (i) complete medium, (ii) 1 mM EDTA/PBS and then (iii) RPM1/1 percent BSA free of serum components. The cells are centrifuged after each washing. The cells are finally resuspended in serum-free RPMI/1 percent BSA at a concentration of 1×10^6 viable cells/ml, which provides a concentration that is diluted by one-half in the assay.
Inhibitor compounds are prepared as stock solutions at 20 mg/ml in DMSO in 1.5 ml cryogenic screwcap vials, and were stored at -70° C. Using Flow™ round-bottom or V-bottom microtiter plates, the inhibitor compounds were prepared at twice the assay concentration in RPMI/1 percent BSA at 60 μl/well.
Four initial dilutions were typically used.
The ^51 Cr-labeled cells ([…] at 60 μl/well) were then admixed with the diluted compound solutions. The admixtures were maintained at room temperature (about 22° C.) for 30 minutes.
One hundred microliters of each inhibitor compound/cell admixture were transferred to the substrate-coated wells. This was done in triplicate for each dilution. The resulting plates were incubated for 30 minutes at 37° C. and then washed gently three times with RPMI/1 percent BSA at 200 μl/well. Binding was observed microscopically, particularly after the second wash.
The bound cells were then lysed by the addition of a 0.5 percent solution of sodium dodecylsulfate in water at 100 μl/well. The resulting solutions were then processed for counting and calculation of IC50 values following usual procedures.
The data of Table 1 are normalized to the binding of SEQ ID NO:3. […] Multiple assays for the same compound were averaged.

[3] = test system: BALB/c mice; assay: Adoptive transfer delayed type hypersensitivity (oxazolone) in mice; type: in vivo, mouse; conditions: versus vehicle alone; implanted pump, 24 hours
Protocol: An adoptive transfer delayed-type hypersensitivity murine model has been developed using splenic T cells primed to oxazolone. This model is described in Elices et al., Clin. Exp. Rheum., 11(Suppl. 8):577-580 (1993), whose procedures were followed here.
Thus, BALB/c mice were shaved on the belly and painted (50 μl on the belly and 5 μl on each paw) with three percent oxazolone in acetone/olive oil (4:1) at days zero and 1. At day 5, the mice were sacrificed, their spleens removed, and splenic T cells were obtained via nylon wool columns.
Normal saline or saline containing 25×10^6 /animal of the oxazolone-immune T cells were separately injected into naive mice. The mice were then challenged by painting 10 μl of 2 percent oxazolone onto one ear each. All procedures were carried out under sterile conditions and in endotoxin-free buffers.
Prior to challenge or saline injection, the mice were implanted with pumps that subcutaneously administered normal saline, normal saline containing the compound, Compound ID No. 896.52, N-phenylacetyl-Leu-Asp-Phe-D-Pro-NH2, or normal saline containing a compound with a scrambled sequence continually at 6 mg/kg/day for a 24-hour time period. The swelling diameter at the site of challenge or saline injection was measured with a microcaliper 24 hours thereafter.
An expanded study was carried out as described above except that a scrambled compound control was not used as a control for further inhibitor compounds of Table 1 with larger groups of mice. Statistical analyses were carried out versus injection of vehicle alone.

[4] = test system: Jurkat T cell line; assay: Binding of Jurkat cells to frozen human RA synovial sections; type: cell-based; conditions: 10-mer at 500 μg/ml; 896.52 at its IC50 value
Protocol: Binding studies were carried out using the Jurkat T cell line and frozen RA synovial sections. […] Stimulated MOLT-4 cells behaved similarly.
The absolute value of that IC50 value is about 0.5 μmolar.

[5] = test system: mouse; conditions: in vivo; cited from earlier work
[6] = binding inhibition potency (IC50) normalized to standard compound of SEQ ID NO:3 = 1, multiple assays averaged, about one-tenth or less assigned zero

T1 sequence (P13612 34-1032): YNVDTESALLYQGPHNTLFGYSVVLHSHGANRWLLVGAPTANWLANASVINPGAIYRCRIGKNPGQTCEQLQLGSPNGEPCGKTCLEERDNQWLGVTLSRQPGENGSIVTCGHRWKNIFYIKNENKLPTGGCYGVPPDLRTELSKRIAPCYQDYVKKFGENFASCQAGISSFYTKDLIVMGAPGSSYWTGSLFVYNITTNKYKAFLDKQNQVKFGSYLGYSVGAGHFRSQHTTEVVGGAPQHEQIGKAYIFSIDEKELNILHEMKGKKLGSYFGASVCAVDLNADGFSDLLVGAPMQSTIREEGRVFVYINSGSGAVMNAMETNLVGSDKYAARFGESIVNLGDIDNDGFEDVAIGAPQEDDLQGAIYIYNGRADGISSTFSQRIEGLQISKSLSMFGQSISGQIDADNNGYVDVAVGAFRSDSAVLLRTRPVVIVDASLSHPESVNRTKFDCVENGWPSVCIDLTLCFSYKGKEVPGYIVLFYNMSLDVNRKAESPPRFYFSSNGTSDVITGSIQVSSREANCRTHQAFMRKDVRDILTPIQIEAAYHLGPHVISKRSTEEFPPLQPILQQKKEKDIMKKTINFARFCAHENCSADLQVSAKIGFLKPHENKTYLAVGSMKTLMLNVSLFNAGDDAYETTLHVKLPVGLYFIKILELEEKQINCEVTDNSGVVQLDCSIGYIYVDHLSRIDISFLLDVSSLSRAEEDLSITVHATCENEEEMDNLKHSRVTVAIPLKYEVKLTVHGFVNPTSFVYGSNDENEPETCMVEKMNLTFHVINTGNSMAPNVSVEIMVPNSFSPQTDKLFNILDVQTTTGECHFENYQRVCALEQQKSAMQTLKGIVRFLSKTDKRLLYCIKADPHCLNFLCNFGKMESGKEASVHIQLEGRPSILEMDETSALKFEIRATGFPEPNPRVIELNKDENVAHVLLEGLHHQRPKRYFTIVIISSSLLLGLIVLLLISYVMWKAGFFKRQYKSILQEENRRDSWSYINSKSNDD
T1 sequence (P05556 21-798): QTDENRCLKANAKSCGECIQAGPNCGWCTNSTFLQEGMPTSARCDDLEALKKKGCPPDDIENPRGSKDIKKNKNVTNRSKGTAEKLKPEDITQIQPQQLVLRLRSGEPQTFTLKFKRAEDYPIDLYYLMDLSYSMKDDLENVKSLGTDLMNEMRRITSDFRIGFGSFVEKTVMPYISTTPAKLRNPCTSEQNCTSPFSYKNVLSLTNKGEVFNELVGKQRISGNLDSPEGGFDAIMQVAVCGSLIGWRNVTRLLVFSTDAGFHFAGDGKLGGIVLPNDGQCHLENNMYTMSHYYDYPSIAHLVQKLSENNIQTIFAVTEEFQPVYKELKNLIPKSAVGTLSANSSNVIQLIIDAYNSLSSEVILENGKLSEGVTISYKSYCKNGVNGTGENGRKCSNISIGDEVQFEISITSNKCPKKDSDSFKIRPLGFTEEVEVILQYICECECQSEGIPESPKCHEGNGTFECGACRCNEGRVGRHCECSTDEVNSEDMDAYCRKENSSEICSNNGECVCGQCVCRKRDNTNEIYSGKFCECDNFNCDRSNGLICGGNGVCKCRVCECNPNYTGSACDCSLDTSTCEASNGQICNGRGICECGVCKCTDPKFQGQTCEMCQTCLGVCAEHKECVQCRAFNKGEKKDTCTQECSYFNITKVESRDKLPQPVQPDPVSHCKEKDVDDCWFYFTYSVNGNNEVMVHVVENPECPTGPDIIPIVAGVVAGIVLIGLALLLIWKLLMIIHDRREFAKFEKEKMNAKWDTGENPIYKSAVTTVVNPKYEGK

Compound: CC(C)C[C@H](NC(=O)Cc1ccccc1)C(=O)N[C@@H](CC(=O)O)C(=O)N[C@@H](Cc1ccccc1)C(=O)N1CCOCC1 [1051.01, N-phenylacetyl-Leu-Asp-Phe-morpholinamide] (PhAc-Leu-Asp-Phe-Morpholide)
- Cdyn value over six hours after challenge ([1]; FIG. 4A): stayed at about the initial value
- RL values over six hours after challenge, percent of initial value ([1]; FIG. 4B): ≤ 200%
- binding inhibition, in words (compared with standard 10-mer of SEQ ID NO:3 or other compounds) [2]: greatest potency

Compound: CC(C)C[C@H](NC(=O)Cc1ccccc1)C(=O)N[C@@H](CC(=O)O)C(=O)N[C@@H](Cc1ccccc1)C(=O)N1CCC(O)CC1 [1070.02, .phi.Ac--Leu--Asp--Phe--4-hydroxpiperidinamide]
- Percent Inhibition of post-challenge swelling, expanded study [3]: 29%

Compound: CC(C)C[C@H](NC(=O)Cc1ccccc1)C(=O)N[C@@H](CC(=O)O)C(=O)N[C@@H](Cc1ccccc1)C(=O)N1CCSCC1 [1111.02]
- Relative Potency [2, 6]: 450

Compound: CC(C)C[C@H](NC(=O)Cc1ccccc1)C(=O)N[C@@H](CC(=O)O)C(=O)N[C@@H](Cc1ccccc1)C(=O)N1CCN(CC(=O)O)CC1 [1111.06, .phi.Ac--Leu--Asp--Phe--4-N(carboxy-methyl)piperazinamide]
- Percent Inhibition of post-challenge swelling, expanded study [3]: 30%
- Relative Potency [2, 6]: 2600

Compound: CC(C)C[C@H](NC(=O)Cc1ccccc1)C(=O)N[C@@H](CC(=O)O)C(=O)N[C@@H](Cc1ccccc1)C(=O)N1CCN(CCOCCO)CC1 [1111.07]
- Relative Potency [2, 6]: 510

Compound: CCCC[C@H](NC(=O)Cc1ccccc1)C(=O)N[C@@H](CC(=O)O)C(=O)N[C@@H](Cc1ccccc1)C(=O)N1CCC[C@@H]1C(N)=O [1160.02] (PhAc-[Nle]DF[dP]-NH2)
- Relative Potency [2, 6]: 49

Compound: CCOC(=O)C[C@H](NC(=O)[C@H](CC(C)C)NC(=O)Cc1ccccc1)C(=O)N[C@@H](Cc1ccccc1)C(=O)N1CCC[C@@H]1C(N)=O [1190.01] (PhAc-LD(OEt)F[dP]-NH2)
- Relative Potency ([2]; prodrug compounds, potency before enzymatic conversion to active form, relative to SEQ ID NO:3 = 1): 0

Compound: CC(C)C[C@H](NC(=O)Cc1ccccc1)C(=O)N[C@@H](CC(=O)O)C(=O)N(C)[C@@H](Cc1ccccc1)C(=O)N1CCC[C@@H]1C(N)=O [1190.05] (PhAc-LD[NMeF][dP]-NH2)
- Relative Potency [2, 6]: 0

Compound: CC(C)C[C@H](NC(=O)Cc1ccccc1)C(=O)N(C)[C@@H](CC(=O)O)C(=O)N[C@@H](Cc1ccccc1)C(=O)N1CCC[C@@H]1C(N)=O [1190.06] (PhAc-L[NMeD]F[dP]-NH2)
- Relative Potency [2, 6]: 0

Compound: CC[C@H](C)[C@H](NC(=O)[C@H](CCC(=O)O)NC(=O)[C@@H]1CCCN1C(=O)CN)C(=O)N[C@@H](CC(C)C)C(=O)N[C@@H](CC(=O)O)C(=O)N[C@H](C(=O)N1CCC[C@H]1C(=O)N[C@@H](CO)C(=O)N[C@H](C(=O)O)[C@@H](C)O)C(C)C [SEQ ID NO:3, GPEILDVPST] (H-GPEILDVPST-OH)
- inhibition of Jurkat cell adhesion to RA synovial sections [4]: could be inhibited

Compound: Arg-Gly-Asp [Arg-Gly-Asp peptide]
- inhibition of contact hypersensitivity / T lymphocyte recruitment to skin inflammatory sites [5]: also inhibitory
